# Measurements taken from patent US20030187007A1, “Inhibitors of protein kinase for the treatment of disease” (priority 2001, published 2003).
# Assays:
# [1] = system: panel of protein kinases; assay: Specificity studies, overall statement; assay type: biochemical
# Description: The assays of kinases were determined by monitoring the phosphorylation of appropriate substrates. The assay mixture contained 0.1 mM cold ATP ^33P-γ-ATP (2000-4000 cpm/μL), 0.1 mM substrate, 1 mM DTT, and 10 mM MgCl2 in 100 mM HEPES buffer pH 7.4. The assay mixture, along with inhibitor and kinase enzyme (0.3-0.4 U/mL), was mixed together in a microtiter 96-well plate in a final volume of 40 μL, sealed and incbated for 1 hour at 30° C. Following incubation, a 15 μL aliquot was added to a Whatman P81 filtration plate containing 100 μL 0.5% phosphoric acid. This mixture was allowed to stand for 5 minutes prior to filtration on a vacuum manifold. The filter plate was washed with 5 successive additions of 300 μL 0.5% phosporic acid. The filtration plate was air dried for 10 minutes before sealing the bottom. After addition of scintillation fluid to the sealed plate, phosphorylated substrate was quantified in a scintillation counter.
# [2] = system: CCRF-CEM; assay: In vitro tumor cell efficacy test (SRB), Leukemia; assay type: cell-based; conditions: Homo sapiens, 72 hours
# [3] = system: RPMI-8226; assay: In vitro tumor cell efficacy test (SRB), Leukemia; assay type: cell-based; conditions: Homo sapiens, RPMI-8226, Leukemia, 72 hours
# [4] = system: SR; assay: In vitro tumor cell efficacy test (SRB), Leukemia; assay type: cell-based; conditions: Homo sapiens, 72 hours
# [5] = system: EKVX; assay type: cell-based; conditions: Homo sapiens, Non-Small Cell Lung Cancer, 72 hours
# [6] = system: HOP-62; assay type: cell-based; conditions: Homo sapiens, HOP-62, Non-Small Cell Lung Cancer, 72 hours
# [7] = system: NCI-H23; assay type: cell-based; conditions: Homo sapiens, NCI-H23, Non-Small Cell Lung Cancer, 72 hours
# [8] = system: NCI-H460; assay type: cell-based; conditions: Homo sapiens, NCI-H460, Non-Small Cell Lung Cancer, 72 hours
# [9] = system: HT29; assay: In vitro tumor cell efficacy test (SRB), Colon Cancer; assay type: cell-based; conditions: Homo sapiens, HT-29, 72 hours
# [10] = system: SF-268; assay: In vitro tumor cell efficacy test (SRB), CNS Cancer; assay type: cell-based; conditions: Homo sapiens, SF-268, CNS Cancer, 72 hours
# [11] = system: SF-295; assay: as above; assay type: cell-based; conditions: Homo sapiens, SF-295, CNS Cancer, 72 hours
# [12] = system: SNB-75; assay: as above; assay type: cell-based; conditions: Homo sapiens, SNB-75, CNS Cancer, 72 hours
# [13] = system: LOX IMVI; assay: In vitro tumor cell efficacy test (SRB), Melonoma; assay type: cell-based; conditions: Homo sapiens, 72 hours
# [14] = system: MALME-3M; assay: In vitro tumor cell efficacy test (SRB), Melonoma; assay type: cell-based; conditions: Homo sapiens, 72 hours
# [15] = system: SK-MEL-2; assay: In vitro tumor cell efficacy test (SRB), Melonoma; assay type: cell-based; conditions: Homo sapiens, SK-MEL-2, Melonoma, 72 hours
# [16] = system: SK-MEL-5; assay: In vitro tumor cell efficacy test (SRB), Melonoma; assay type: cell-based; conditions: Homo sapiens, SK-MEL-5, Melonoma, 72 hours
# [17] = system: UACC-257; assay: In vitro tumor cell efficacy test (SRB), Melonoma; assay type: cell-based; conditions: Homo sapiens, UACC-257, Melonoma, 72 hours
# [18] = system: OVCAR-4; assay: In vitro tumor cell efficacy test (SRB), Ovarian Cancer; assay type: cell-based; conditions: Homo sapiens, OVCAR-4, Ovarian Cancer, 72 hours
# [19] = system: OVCAR-5; assay: as above; assay type: cell-based; conditions: Homo sapiens; OVCAR-5, Ovarian Cancer, 72 hours
# [20] = system: OVCAR-8; assay: as above; assay type: cell-based; conditions: Homo sapiens, OVCAR-8, Ovarian Cancer, 72 hours
# [21] = system: CAKI-1; assay: In vitro tumor cell efficacy test (SRB), Renal Cancer; assay type: cell-based; conditions: Homo sapiens, CAKI-1, Renal Cancer, 72 hours
# [22] = system: TK-10; assay: as above; assay type: cell-based; conditions: Homo sapiens; TK-10, Renal Cancer, 72 hours
# [23] = system: PC-3; assay: In vitro tumor cell efficacy test (SRB), Prostate Cancer; assay type: cell-based; conditions: Homo sapiens, PC-3, Prostate Cancer, 72 hours
# [24] = system: MDA-MB-231/ATCC; assay: In vitro tumor cell efficacy test (SRB), Breast Cancer; assay type: cell-based; conditions: Homo sapiens, 72 hours
# [25] = system: HS 578T; assay: as above; assay type: cell-based; conditions: Homo sapiens, 72 hours
# [26] = system: T-47D; assay: as above; assay type: cell-based; conditions: Homo sapiens, T47D, 72 hours
# [27] = read-out: Log (LC50) (the source's name) (converted)
smiles,measurement,setting,value
"Nc1nccc(-c2cc(-c3ccc(O)cc3)ccc2O)n1 [3-(2-Amino-pyrimidin-4-yl)-biphenyl-4,4′-diol]",specificity,[1]; CDK5 and CDK2 versus a panel of protein kinases,highly specific for CDK5 and CDK2
same,inhibition against a panel of protein kinases,[1]; panel of protein kinases,little inhibition
same,GI50,[2],0.2 µM
same,CC50,[2]; [27],79.4 µM
same,GI50,[3],0.2 µM
same,CC50,[3]; [27],> 100 µM
same,GI50,[4],0.01 µM
same,CC50,[4]; [27],> 100 µM
same,GI50,[5],0.251 µM
same,CC50,[5]; [27],> 100 µM
same,GI50,[6],0.0794 µM
same,CC50,[6]; [27],7.94 µM
same,GI50,[7],0.251 µM
same,CC50,[7]; [27],> 100 µM
same,GI50,[8],0.251 µM
same,CC50,[8]; [27],> 100 µM
same,GI50,[9],3.16 µM
same,CC50,[9]; [27],> 100 µM
same,GI50,[10],0.251 µM
same,CC50,[10]; [27],> 100 µM
same,GI50,[11],0.251 µM
same,CC50,[11]; [27],> 100 µM
same,GI50,[12],2 µM
same,CC50,[12]; [27],> 100 µM
same,GI50,[13],0.2 µM
same,CC50,[13]; [27],> 100 µM
same,GI50,[14],0.501 µM
same,CC50,[14]; [27],> 100 µM
same,GI50,[15],0.2 µM
same,CC50,[15]; [27],3.16 µM
same,GI50,[16],0.1 µM
same,CC50,[16]; [27],20 µM
same,GI50,[17],1.26 µM
same,CC50,[17]; [27],> 100 µM
same,GI50,[18],0.316 µM
same,CC50,[18]; [27],> 100 µM
same,GI50,[19],2 µM
same,LC50 (50% lethal concentration),[19],> 100 µM
same,GI50,[20],0.2 µM
same,CC50,[20]; [27],> 100 µM
same,GI50,[21],0.398 µM
same,CC50,[21]; [27],> 100 µM
same,GI50,[22],2 µM
same,LC50,[22],> 100 µM
same,GI50,[23],0.251 µM
same,CC50,[23]; [27],> 100 µM
same,GI50,[24],0.251 µM
same,CC50,[24]; [27],> 100 µM
same,GI50,[25],0.398 µM
same,CC50,[25]; [27],> 100 µM
same,GI50,[26],2 µM
same,CC50,[26]; [27],50.1 µM
